Experimental data from patent publication US20220402950A1, “SUBSTITUTED BENZIMIDAZOLES AS PAD4 INHIBITORS” (BRISTOL-MYERS SQUIBB COMPANY, priority 2018, published 2022).

target: human PAD4 (hPAD4) (Homo sapiens, UniProt Q9UM07); experiment: RFMS Human PAD4 Functional Assay; type: biochemical; details: hPAD4 RFMS IC50, human PAD4, rapid-fire mass spectrum (RFMS) assay; 5 nM hPAD4, 250 μM BAEE
Procedure, shortened: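 RapidFire ESI-MS quantification, normalised to a modified-citrulline internal standard, after phenyl glyoxal (final 4 mM) derivatisation of the TCA-quenched reaction. The enzyme (10 nM) sat 30 min with compound (up to 50 μM final) before 500 μM BAEE (as added) started a 90 min, 37 °C reaction. Buffer: HEPES pH 7.5, 50 μM calcium, 5 μM TPEN.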

Sequence of human PAD4 (hPAD4) (Q9UM07 whole entry): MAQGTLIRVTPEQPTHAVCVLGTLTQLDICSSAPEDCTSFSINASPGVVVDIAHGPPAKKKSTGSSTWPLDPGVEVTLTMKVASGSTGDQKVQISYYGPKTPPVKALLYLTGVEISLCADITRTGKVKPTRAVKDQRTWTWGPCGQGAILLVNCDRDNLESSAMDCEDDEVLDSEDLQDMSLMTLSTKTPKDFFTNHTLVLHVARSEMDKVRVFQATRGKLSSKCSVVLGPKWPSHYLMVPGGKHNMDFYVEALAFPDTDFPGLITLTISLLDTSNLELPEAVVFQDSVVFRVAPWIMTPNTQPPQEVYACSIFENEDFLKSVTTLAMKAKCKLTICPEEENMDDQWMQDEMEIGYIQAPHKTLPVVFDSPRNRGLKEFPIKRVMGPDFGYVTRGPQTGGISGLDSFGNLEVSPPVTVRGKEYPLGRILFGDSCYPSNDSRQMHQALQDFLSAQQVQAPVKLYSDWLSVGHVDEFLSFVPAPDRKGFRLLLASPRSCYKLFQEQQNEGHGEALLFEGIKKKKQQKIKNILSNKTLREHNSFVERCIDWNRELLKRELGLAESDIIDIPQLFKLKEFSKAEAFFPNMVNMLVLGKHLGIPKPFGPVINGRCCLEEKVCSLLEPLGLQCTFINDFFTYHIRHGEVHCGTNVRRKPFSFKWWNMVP

Compound | IC50
COC(=O)N1CC=C(c2cccc3cc(-c4nc5cc(C(=O)N6C[C@H]7CC[C@@H]6[C@@H]7N)cc(OC)c5n4C)n(CC4CC4)c23)CC1 [Example 221, methyl 4-(2-(5-((1R,4R,7R)-7-amino-2-azabicyclo[2.2.1]heptane-2-carbonyl)-7-methoxy-1-methyl-1H-benzo[d]imidazol-2-yl)-1-(cyclopropylmethyl)-1H-indol-7-yl)-3,6-dihydropyridine-1(2H)-carboxylate] | 77 nM
COc1cc(C(=O)N2C[C@H]3CC[C@@H]2[C@@H]3N)cc2nc(-c3cc4cccc(Cl)c4n3CC3CC3)n(C)c12 [Example 145, ((1R,4R,7R)-7-amino-2-azabicyclo[2.2.1]heptan-2-yl)(2-(7-chloro-1-(cyclopropylmethyl)-1H-indol-2-yl)-7-methoxy-1-methyl-1H-benzo[d]imidazol-5-yl)methanone] | 123 nM
COc1cc(C(=O)N2C[C@H]3CC[C@@H]2[C@@H]3N)cc2nc(-c3cc4cccc(C5CCN(C(C)=O)CC5)c4n3CC3CC3)n(C)c12 [Example 15, 1-[4-(2-{5-[(1R,4R,7R)-7-amino-2-azabicyclo[2.2.1]heptane-2-carbonyl]-7-methoxy-1-methyl-1H-1,3-benzodiazol-2-yl}-1-(cyclopropylmethyl)-1H-indol-7-yl)piperidin-1-yl]ethan-1-one] | 20 nM
COc1cc(C(=O)N2C[C@H]3CC[C@@H]2[C@@H]3N)cc2nc(-c3cc4cccc(CCC(C)(C)O)c4n3CC3CC3)n(C)c12 [Example 21, 4-(2-{5-[(1R,4R,7R)-7-amino-2-azabicyclo[2.2.1]heptane-2-carbonyl]-7-methoxy-1-methyl-1H-1,3-benzodiazol-2-yl}-1-(cyclopropylmethyl)-1H-indol-7-yl)-2-methylbutan-2-ol] | 86 nM
COc1cc(C(=O)N2C[C@H]3CC[C@@H]2[C@@H]3N)cc2nc(-c3cc4cccc(CC5CCOCC5)c4n3CC3CC3)n(C)c12 [Example 31, (1R,4R,7R)-2-{2-[1-(cyclopropylmethyl)-7-[(oxan-4-yl)methyl]-1H-indol-2-yl]-7-methoxy-1-methyl-1H-1,3-benzodiazole-5-carbonyl}-2-azabicyclo[2.2.1]heptan-7-amine] | 198 nM
COc1cc(C(=O)N2C[C@H]3CC[C@@H]2[C@@H]3N)cc2nc(-c3cc4cc(C)cc(-c5cn[nH]c5)c4n3CC3CC3)n(C)c12 [Example 154, ((1R,4R,7R)-7-amino-2-azabicyclo[2.2.1]heptan-2-yl)(2-(1-(cyclopropylmethyl)-5-methyl-7-(1H-pyrazol-4-yl)-1H-indol-2-yl)-7-methoxy-1-methyl-1H-benzo[d]imidazol-5-yl)methanone] | 43 nM

same assay, conditions: human PAD4, rapid-fire mass spectrum (RFMS) assay; 5 nM hPAD4, 250 μM BAEE; read-out: hPAD4 RFMS IC50

Compound | IC50
COc1cc(C(=O)N2C[C@H]3CC[C@@H]2[C@@H]3N)cc2nc(-c3cc4cccc(-c5ccc(O)c(CO)c5)c4n3CC3CC3)n(C)c12 [Example 119, ((1R,4R,7R)-7-amino-2-azabicyclo[2.2.1]heptan-2-yl)(2-(1-(cyclopropylmethyl)-7-(4-hydroxy-3-(hydroxymethyl)phenyl)-1H-indol-2-yl)-7-methoxy-1-methyl-1H-benzo[d]imidazol-5-yl)methanone] | 20 nM
COc1cc(C(=O)N2C[C@H]3CC[C@@H]2[C@@H]3N)cc2nc(-c3cc4cccc(C5CC6(C5)CN(C(C)=O)C6)c4n3CC3CC3)n(C)c12 [Example 62, 1-[6-(2-{5-[(1R,4R,7R)-7-amino-2-azabicyclo[2.2.1]heptane-2-carbonyl]-7-methoxy-1-methyl-1H-1,3-benzodiazol-2-yl}-1-(cyclopropylmethyl)-1H-indol-7-yl)-2-azaspiro[3.3]heptan-2-yl]ethan-1-one] | 110 nM
COc1cc(C(=O)N2C[C@H]3CC[C@@H]2[C@@H]3N)cc2nc(-c3cc4cccc(Br)c4n3CC3CC3)n(C)c12 [Example 1, ((1R,4R,7R)-7-amino-2-azabicyclo[2.2.1]heptan-2-yl)(2-(7-bromo-1-(cyclopropylmethyl)-1H-indol-2-yl)-7-methoxy-1-methyl-1H-benzo[d]imidazol-5-yl)methanone] | 162 nM
